Measured values reported in patent US9521847B2, “Synergistic weed control from applications of pyridine carboxylic acid herbicides and synthetic auxin herbicides and/or auxin transport inhibitors” (Dow AgroSciences LLC, priority 2014, dated 2016).

Experiments:
[1] = system: common chickweed (Stellaria media, STEME); assay: Greenhouse postemergence trial, % visual injury; type: in vivo; conditions: STEME, 400 g ae/ha
[2] = system: Canadian thistle (CIRAR, Cirsium arvense); assay: Greenhouse postemergence trial, % visual injury; conditions: for % visual injury, Obs: CIRAR; for pest or weed control at 5 g/ha: Cirsium arvense, post-emergence, read-out: % visual injury Obs;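 for all read-outs here: plants sprayed at second to third true leaf stage, injury scored visually 20-22 d later against solvent-blank sprayed controls, 0 meaning no injury and 100 complete kill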
[3] = system: spring rape (Brassica napus, BRSNN); assay: Greenhouse postemergence trial, % visual injury; conditions: for plant injury at 5 g/ha: read-out: % visual injury Obs
[4] = system: wild pansy (Viola tricolor, VIOTR); assay: Greenhouse postemergence trial, % visual injury; conditions: for % visual injury, Obs: VIOTR; for pest or weed control at 5 g/ha: Viola tricolor, post-emergence, read-out: % visual injury Obs
[5] = system: winter wheat (TRZAW); assay: Greenhouse postemergence trial, crop phytotoxicity (% visual injury); conditions: for % visual injury, Obs: TRZAW; for % visual injury Obs: crop, 5 g ae/ha alone, 20-22 d
[6] = system: common rice (ORYSA); assay: as above; conditions: ORYSA
[7] = system: kochia (KCHSC, Kochia scoparia); assay: Greenhouse postemergence trial, % visual injury; type: in vivo; conditions: KCHSC
Procedure: Following the protocol in Example 1, compound 1 and compound 2 were combined with 2,4 D EHE (EC) and applied to kochia (KCHSC, Kochia scoparia) and the phytotoxicity of the herbicidal compositions was measured.
Following the protocol in Example 1, compound 1 (EC) and Compound 2 (SC) were combined with diflufenzopyr and applied to kochia (Kochia scoparia, KCHSC) and the phytotoxicity of the herbicidal composition was measured.

[8] = system: velvetleaf (Abutilon theophrasti, ABUTH); assay: Greenhouse postemergence trial, % visual injury; type: in vivo; conditions: for % visual injury Obs: 5 g ae/ha alone, 20-22 d
[9] = system: nutsedge (Cyperus esculentus, CYPES); assay: Greenhouse postemergence trial, % visual injury; type: in vivo; conditions: for % visual injury, Obs: CYPES; for pest or weed control at 5 g/ha: Cyperus, post-emergence, 5 g ae/ha alone, 20-22 d, read-out: % visual injury Obs
[10] = system: grain sorghum (Sorghum vulgare, SORVU); assay: Greenhouse postemergence trial, % visual injury; type: in vivo; conditions: for % visual injury Obs: 5 g ae/ha alone, 20-22 d
[11] = system: poinsettia (Euphorbia heterophylla, EPHHL); assay: Greenhouse postemergence trial, % visual injury; conditions: Euphorbia heterophylla, post-emergence; for pest or weed control at 5 g/ha: read-out: % visual injury Obs, 5 g ae/ha alone, 20-22 d
[12] = system: ivyleaf morningglory (Ipomoea hederacea, IPOHE); assay: Greenhouse postemergence trial, % visual injury; conditions: Ipomoea, post-emergence, read-out: % visual injury, Obs, IPOHE, 10 g ae/ha
[13] = system: maize (ZEAMX); assay: Greenhouse postemergence trial, crop phytotoxicity (% visual injury); conditions: for % visual injury, Obs: ZEAMX; for % visual injury Obs: crop, 5 g ae/ha alone, 20-22 d
[14] = system: sunflower (Helianthus annus, HELAN); assay: Greenhouse postemergence trial, % visual injury; type: in vivo
[15] = system: wild buckwheat (Polygonum convolvulus, POLCO); assay: Greenhouse postemergence trial, % visual injury; type: in vivo; conditions: for % visual injury Obs: 5 g ae/ha alone, 20-22 d
[16] = system: large crabgrass (Digitaria sanguinalis, DIGSA); assay: Greenhouse postemergence trial, % visual injury; type: in vivo; conditions: DIGSA, 5 g ae/ha
[17] = system: common lambsquarters (CHEAL, Chenopodium album L.); assay: Greenhouse postemergence trial, % visual injury; type: in vivo; conditions: Chenopodium album, post-emergence; 5 g ae/ha alone; 20-22 d; read-out: % visual injury Obs
[18] = Brassica napus, post-emergence, read-out: % visual injury, Obs

With `Cc1cc(Cl)ccc1OCC(=O)O` [MCPA DMA, MCPA-dimethylammonium] the “% visual injury, Obs” value [1] was 20%, the “% visual injury, Obs” value ([2]; 400 g ae/ha) was 65% and the plant injury at 400 g/ha [3, 18] was 95%. For the same compound, the “% visual injury, Obs” value ([4]; 400 g ae/ha) was 30%, the “% visual injury, Obs” value ([5]; 400 g ae/ha) was 0% and the “% visual injury, Obs” value ([6]; 400 g ae/ha) was 0%.
In the case of `Nc1c(Cl)c(Cl)nc(C(=O)O)c1Cl` [picloram-potassium, reference compound], the pest or weed control at 10 g/ha ([7]; Bassia scoparia, post-emergence, 10 g ae/ha, read-out: % visual injury, Obs) is reported as 0%, the pest or weed control at 10 g/ha ([8]; Abutilon theophrasti, post-emergence, ABUTH, 10 g ae/ha, read-out: % visual injury, Obs) is reported as 35% and the “% visual injury, Obs” value ([9]; 10 g ae/ha) is reported as 0%. For the same compound, the “% visual injury, Obs” value ([10]; SORVU, 10 g ae/ha) was 0%, the “% visual injury, Obs” value ([2]; 10 g ae/ha) was 60% and the plant injury at 10 g/ha [3, 18] was 20%. The pest or weed control at 10 g/ha ([11]; read-out: % visual injury, Obs, EPHHL, 10 g ae/ha) was 20%, the “% visual injury, Obs” value ([4]; 10 g ae/ha) was 0% and the pest or weed control at 10 g/ha [12] was 40%. For the same compound, the “% visual injury, Obs” value ([5]; 10 g ae/ha) was 0%, the “% visual injury, Obs” value ([13]; 10 g ae/ha) was 0% and the “% visual injury, Obs” value ([6]; 10 g ae/ha) was 0%.
`C/C(=N\NC(=O)Nc1cc(F)cc(F)c1)c1ncccc1C(=O)O` [diflufenzopyr] was tested, and the “% visual injury, Obs.” value ([7]; diflufenzopyr 3.5 g ae/ha, Table 60) was 0%, the “% visual injury, Obs.” value ([7]; diflufenzopyr 3.5 g ae/ha, Table 61) was 0% and the “% visual injury, Obs.” value ([7]; diflufenzopyr 7 g ae/ha, Table 60) was 0%. The “% visual injury, Obs.” value ([7]; diflufenzopyr 7 g ae/ha, Table 61) was 0%.
With `C=C(F)c1c(C(=O)O)nc(-c2ccc3cc[nH]c3c2F)c(F)c1N` [compound 15] the “% visual injury Obs” value [8] was 30%, the pest or weed control at 5 g/ha [9] was 25% and the “% visual injury Obs” value ([14]; 5 g ae/ha alone, 20-22 d) was 90%. The “% visual injury Obs” value [15] was 30%, the “% visual injury Obs” value [10] was 0% and the pest or weed control at 5 g/ha [2] was 15%. For the same compound, the pest or weed control at 5 g/ha [11] was 73%, the pest or weed control at 5 g/ha [4] was 33% and the “% visual injury Obs” value [5] was 5%. The “% visual injury Obs” value [13] was 0%.
In the case of `COc1c(Cl)ccc(-c2nc(C(=O)OCc3ccccc3)c(Cl)c(N)c2F)c1F` [Rinskor ™], the “% visual injury, Obs” value ([7]; 5 g ae/ha) is reported as 50%, the “% visual injury, Obs” value ([8]; ABUTH, 5 g ae/ha) is reported as 80% and the “% visual injury, Obs” value ([9]; 5 g ae/ha) is reported as 70%. The “% visual injury, Obs” value ([14]; HELAN, 5 g ae/ha) was 85%, the “% visual injury, Obs” value ([15]; POLCO, 5 g ae/ha) was 60% and the “% visual injury, Obs” value [16] was 0%. The “% visual injury, Obs” value ([2]; 5 g ae/ha) was 70%, the “% visual injury, Obs” value ([3]; BRSNN, 5 g ae/ha) was 20% and the “% visual injury, Obs” value ([4]; 5 g ae/ha) was 10%. For the same compound, the “% visual injury, Obs” value ([5]; 5 g ae/ha) was 0%, the “% visual injury, Obs” value ([13]; 5 g ae/ha) was 0% and the “% visual injury, Obs” value ([6]; 5 g ae/ha) was 0%.
`COC(=O)c1nc(-c2ccc3sccc3c2)c(F)c(N)c1Cl` [compound 9] was tested, and the pest or weed control at 5 g/ha [9] was 0%, the “% visual injury Obs” value [15] was 25% and the pest or weed control at 5 g/ha [2] was 10%. For the same compound, the plant injury at 5 g/ha ([3]; Brassica napus, post-emergence) was 10%, the pest or weed control at 5 g/ha [11] was 60% and the pest or weed control at 5 g/ha [4] was 15%. For the same compound, the “% visual injury Obs” value [5] was 0% and the “% visual injury Obs” value [13] was 0%.
In the case of `COC(=O)c1nc(-c2ccc3ccoc3c2F)nc(N)c1OC` [compound 12], the pest or weed control at 5 g/ha [17] is reported as 84%, the “% visual injury Obs” value [8] is reported as 10% and the pest or weed control at 5 g/ha [9] is reported as 5%. The “% visual injury Obs” value [10] was 0%, the pest or weed control at 5 g/ha [2] was 10% and the plant injury at 5 g/ha ([3]; Brassica napus, post-emergence) was 50%. For the same compound, the pest or weed control at 5 g/ha [11] was 35%, the pest or weed control at 5 g/ha [4] was 18% and the “% visual injury Obs” value [5] was 0%. The “% visual injury Obs” value [13] was 0%.
